In ChEMBL document CHEMBL4138296, “Nonacidic Chemotype Possessing N-Acylated Piperidine Moiety as Potent Farnesoid X Receptor (FXR) Antagonists” (ACS Med Chem Lett, 2018):
pIC50: −log10 of the molar value. Calls of active or inactive are those of the source. The rule behind the calls is not given here.

Key:
Bile acid receptor [1] = molecular target: T1, Bile acid receptor (Homo sapiens, UniProt Q96RI1); assay: Antagonist activity at GST-tagged FXR LBD (unknown origin) assessed as inhibition of GW4064-induced fluorecein-labeled SRC2-2 coactivator recruitment by Lanthascreen TR-FRET assay
T1 sequence (Q96RI1 whole entry): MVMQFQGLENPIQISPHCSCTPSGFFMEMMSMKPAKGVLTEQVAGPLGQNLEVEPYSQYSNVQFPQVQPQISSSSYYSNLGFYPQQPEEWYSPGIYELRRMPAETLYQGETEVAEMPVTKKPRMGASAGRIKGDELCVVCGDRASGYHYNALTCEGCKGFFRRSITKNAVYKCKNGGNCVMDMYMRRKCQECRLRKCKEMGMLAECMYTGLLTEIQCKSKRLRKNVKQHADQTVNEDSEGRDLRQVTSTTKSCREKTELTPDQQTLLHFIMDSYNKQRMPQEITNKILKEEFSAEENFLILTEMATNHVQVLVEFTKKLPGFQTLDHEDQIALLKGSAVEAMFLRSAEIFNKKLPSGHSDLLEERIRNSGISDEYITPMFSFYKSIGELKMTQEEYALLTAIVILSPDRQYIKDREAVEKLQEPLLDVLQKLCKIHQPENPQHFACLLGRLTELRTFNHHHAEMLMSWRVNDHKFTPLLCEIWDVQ

Hep 3B2 = assay: Cytotoxicity against human Hep3B cells assessed as reduction in cell viability by MTT assay; assay type: functional, cell-based
Bile acid receptor [2] = molecular target: T1, Bile acid receptor; assay: Antagonist activity at human FXR expressed in Hep3B cells assessed as inhibition of CDCA-induced FXR response element driven luciferase activity after 24 hrs; assay type: cell-based
3T3-L1 [3] = assay: Antiadipogenic activity in mouse 3T3L1 cells assessed as inhibition of CDCA-induced intracellular lipid droplets after 6 days by Oil Red O staining based assay; assay type: functional, cell-based
3T3-L1 [4] = assay: Antiadipogenic activity in mouse 3T3L1 cells assessed as reduction in intracellular lipid droplets at 10 uM after 6 days by Oil Red O staining based assay; assay type: functional, cell-based

Row | Structure (SMILES) | pIC50 (Bile acid receptor [1]) | pIC50 (Hep 3B2) | pIC50 (Bile acid receptor [2]) | inhibition (3T3-L1 [3]) | Activity (3T3-L1 [4])
1 | Cc1ccc2nc([C@H](CC3CCN(C(=O)C4CCCC4)CC3)N3C(=O)CN(c4ccc(Oc5ccccc5)cc4)C3=O)n(C)c2c1 | 7.52 | < 4.00 | 11.22 |  | 
2 | CC(=O)N1CCC(C[C@@H](c2nc3ccccc3n2C)N2C(=O)CN(c3ccc(Oc4ccccc4)cc3)C2=O)CC1 | 6.13 | 4.49 | 11.70 |  | 
3 | CC(C)C(=O)N1CCC(C[C@@H](c2nc3ccccc3n2C)N2C(=O)CN(c3ccc(Oc4ccccc4)cc3)C2=O)CC1 | 7.42 | < 4.00 | > 12.00 |  | 
4 | C/C=C1/C(=O)C[C@H]2[C@@H]3CCC4=CC(=O)CC[C@]4(C)[C@H]3CC[C@]12C |  |  |  | Dose-dependent effect | Active
5 | Cc1ccc2nc([C@H](CC3CCNCC3)N3C(=O)CN(c4ccc(Oc5ccccc5)cc4)C3=O)n(C)c2c1 | 4.19 | 4.78 | 5.35 |  | 
6 | CC(C)C(=O)N1CCC(C[C@@H](c2nc3ccc(Cl)cc3n2C)N2C(=O)CN(c3ccc(Oc4ccccc4)cc3)C2=O)CC1 | 6.89 | < 4.00 | 10.30 |  | 
7 | CC(C)C(=O)N1CCC(C[C@@H](c2nc3cc(F)ccc3n2C)N2C(=O)CN(c3ccc(Oc4ccccc4)cc3)C2=O)CC1 | 6.47 | < 4.00 | 10.22 |  | 
8 | CC(=O)N1CCC(C[C@@H](c2nc3ccc(Cl)cc3n2C)N2C(=O)CN(c3ccc(Oc4ccccc4)cc3)C2=O)CC1 | 5.46 | < 4.00 | 9.10 |  | 
9 | Cc1ccc2nc([C@H](CC3CCN(CC(C)C)CC3)N3C(=O)CN(c4ccc(Oc5ccccc5)cc4)C3=O)n(C)c2c1 | 4.79 | 5.16 | 4.76 |  | 
10 | CC(=O)N1CCC(C[C@@H](c2nc3ccc(C)cc3n2C)N2C(=O)CN(c3ccc(Oc4ccccc4)cc3)C2=O)CC1 | 5.89 | 4.76 | 9.70 |  | 
11 | CC(=O)N1CCC(C[C@@H](c2nc3cc(F)ccc3n2C)N2C(=O)CN(c3ccc(Oc4ccccc4)cc3)C2=O)CC1 | 5.08 | < 4.00 | 9.00 |  | 
